Test results as given in patent US20090111860A1, “SULFONAMIDE COMPOUNDS USEFUL AS ADG RECEPTOR MODULATORS” (ASTRAZENECA AB, priority 2006, published 2009).

Target: T1, EDG-1/S1P1 receptor (Homo sapiens, UniProt P21453)
T1 construct: expressed in transfected cells; host or cells: human osteogenic sarcoma U2OS cells (EDG-1 Transfluor U2OS WT Clone #37)
Experiment: In vitro cell based receptor activation assay - Transfluor assay
Settings: EDG-1 Transfluor U2OS WT Clone #37 cells; beta-arrestin GFP relocalization; 375 nM or 750 nM S1P ligand
Source text: A. In Vitro Cell Based Receptor Activation Assay-Transfluor Assay
This cell-based assay was designed to assess the ability of small molecule antagonists to inhibit activation of the GPCR S1P1 in the presence of its cognate ligand S1P. The assay used technology initially developed by Norak Biosciences (Xsira Pharmaceutical) and presently owned by Molecular Devices. A human osteogenic sarcoma (U2OS) cell line overexpressing the EDG-1/S1P1) receptor as well as a beta-arrestin/green fluorescent protein (GFP) construct hereafter termed EDG-1 Transfluor U2OS WT Clone #37 was employed.
Using a high content screening approach (Cellomics Arrayscan), receptor activity was measured by assessment of the relocalization of beta-arrestin GFP in response to stimulation of EDG-1 by S1P. Specifically, EDG-1 Transfluor U2OS WT Clone #37 cells were plated at a density of 6250 cells in 40 uL medium per well in 384 well plastic bottomed microtiter plates (BD Falcon) and incubated overnight at 37° C./5% CO2. Prior to screening, compounds were dissolved in 100% dimethyl sulfoxide (DMSO) to a final stock concentration of 10 mM. […] Plates were then sealed and analysed on the Cellomics Arrayscan using the GPCR signalling algorithm. EC50 values were then calculated using IDBS ActivityBase software.

T1 sequence (P21453 whole entry): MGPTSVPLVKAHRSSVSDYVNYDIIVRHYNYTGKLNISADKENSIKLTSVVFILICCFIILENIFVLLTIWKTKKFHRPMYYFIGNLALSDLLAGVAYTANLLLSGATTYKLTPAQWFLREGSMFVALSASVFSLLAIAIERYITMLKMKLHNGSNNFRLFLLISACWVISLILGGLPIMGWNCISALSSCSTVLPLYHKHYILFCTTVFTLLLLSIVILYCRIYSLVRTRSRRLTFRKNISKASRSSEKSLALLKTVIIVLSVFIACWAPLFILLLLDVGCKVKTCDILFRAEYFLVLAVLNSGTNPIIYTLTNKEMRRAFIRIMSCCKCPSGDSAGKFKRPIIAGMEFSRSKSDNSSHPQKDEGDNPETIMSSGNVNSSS

CCc1c(C(C)NS(=O)(=O)c2ccc(Cl)cc2)n[nH]c1C (stereo not shown) [Example 1]
EC50: 680 nM
